Data as given in PubChem BioAssay (NCI).
Several values for one entry are separate records, joined by “and”; a condition that tells them apart may be missing. Identical values can stand only once.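 Dose response: 5 concentrations. Exposure: 48 h. Format: 96-well plates. Endpoint: linear interpolation; highest concentration if not reached. GI50 = concentration required for 50% inhibition of growth. Definition used: TGI = concentration required for complete inhibition of growth.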

Test system: MDA-MB-468 breast
Assay: inhibition of tumour cell growth, NCI panel, 48 h

Q: With `COc1cc2ncnc(Oc3cccc(NC(=O)Nc4cc(C(C)(C)C(F)(F)F)on4)c3)c2cc1OC` as the compound, how does the GI50 read?
A: 1.04 µM and 1.26 µM

Q: And the TGI?
A: 6.01 µM and 6.4 µM

Q: How did the GI50 turn out when `NC(=O)/C(=C/n1cnc(-c2cc(C(F)(F)F)cc(C(F)(F)F)c2)n1)c1cncnc1` was run?
A: 0.373 µM

Q: And the TGI?
A: 3.01 µM

Q: What does the source list for `CC(=O)Oc1cc2cnc3c4cc(OC(C)=O)c(OC(C)=O)cc4ccc3c2cc1OC(C)=O`?
A: GI50: 1.2 µM; TGI: 4.44 µM

Q: For `O=c1[nH]cnc2n[nH]nc12`, which GI50 is on record?
A: 1.31 µM

Q: And the TGI?
A: 12.7 µM

Q: Which GI50 does the source give for `COc1ccc2c(c1)C(=O)c1c-2c(OCCN(C)C)nc2cc(OC)c(OC)cc12` here?
A: 3.95 µM

Q: What about the TGI of the same compound?
A: 19 µM

Q: With `COc1cc(NC2CCCCC2O)c2nc(-c3ccc(Cl)cc3)ccc2c1` (configuration not stated) as the compound, how does the GI50 read?
A: 7.48 µM

Q: What about the TGI of the same compound?
A: 98.4 µM

Q: With `CC(C)OP(=O)(O)c1ncc(-c2ccc(C(F)(F)F)cc2)c(NC2CCCCCC2)n1` as the compound, how does the GI50 read?
A: 11.2 µM

Q: And the TGI?
A: > 100 µM

Q: Which GI50 does the source give for `CC1(C)N=C(N)N=C(N)N1c1cccc(CCc2ccccc2)c1` here?
A: 0.0745 µM

Q: And the TGI?
A: 2.51 µM

Q: For `CCOc1ccc2cc(-c3nn(CC4CCNCC4)c4ncnc(N)c34)ccc2c1`, which GI50 is on record?
A: 14.3 µM

Q: What about the TGI of the same compound?
A: 30.2 µM

Q: `CCCCCCCCCCCCCCCC[n+]1ccccc1` was tested. Which GI50 did it give?
A: 0.104 µM and 0.194 µM

Q: What about the TGI of the same compound?
A: 0.428 µM and 0.793 µM

Q: Which GI50 does the source give for `C=CC(=O)Nc1cc2c(Nc3ccc(F)c(Cl)c3)ncnc2cc1C#CC(C)(C)N1CCN(C)CC1` here?
A: 0.00795 µM

Q: And the TGI?
A: 0.401 µM

Q: What does the source list for `Cc1ccc(C2CC(c3ccc(Nc4ccnc5cc(Cl)ccc45)cc3)=NN2C=O)cc1` (configuration not stated)?
A: GI50: 1.51 µM; TGI: > 100 µM

Q: Which GI50 does the source give for `O=CN1N=C(c2cccc(Nc3ccnc4cc(Cl)ccc34)c2)CC1c1ccc(Cl)cc1` (configuration not stated) here?
A: 0.422 µM

Q: What about the TGI of the same compound?
A: 3.17 µM

Q: For `COc1ccc(/C=C/C(=O)c2cc3c(N)c(C(=O)Nc4ccc(OC)cc4)sc3nc2C)cc1`, which GI50 is on record?
A: 0.135 µM

Q: What about the TGI of the same compound?
A: > 50 µM

Q: For `COc1cc(-c2nn(-c3cccc(NC(=O)CCNc4ccc(N5CCOCC5)cc4)c3)cc2-c2ccncc2)ccc1Cl`, which GI50 is on record?
A: 2.01 µM

Q: What about the TGI of the same compound?
A: 22.9 µM

Q: For `CCOC(=O)/C(=C\c1ccc2ccccc2c1)P(=O)(OCC)OCC`, which GI50 is on record?
A: 1.9 µM

Q: What about the TGI of the same compound?
A: 3.83 µM

Q: For `CC[C@H]1OC(=O)[C@H](C)[C@@H](O[C@H]2C[C@@](C)(OC)[C@@H](O)[C@H](C)O2)[C@H](C)[C@@H](O[C@@H]2O[C@H](C)C[C@H](N(C)C)[C@H]2O)[C@](C)(OC)C/C(C)=C2/O[C@@]1(C)C=C2C`, which GI50 is on record?
A: 1.82 µM

Q: What about the TGI of the same compound?
A: 3.5 µM

Q: What does the source list for `C#C[C@]1(O)CC[C@H]2[C@@H]3CC=C4c5nc(N)sc5CC[C@]4(C)[C@H]3CC[C@@]21C`?
A: GI50: 2.52 µM; TGI: 7.03 µM

Q: With `COc1ccc(-c2cc(/C=C/C(=O)c3ccc(N)cc3)[nH]n2)cc1` as the compound, how does the GI50 read?
A: 0.43 µM

Q: And the TGI?
A: 2.09 µM

Q: For `CCO/C=N/C1=C(C#N)C(c2ccc(OC)cc2)c2sc3c(CC)cccc3c2O1` (configuration not stated), which GI50 is on record?
A: 2.5 µM

Q: And the TGI?
A: 10.3 µM

Q: What does the source list for `CCOC(=O)c1c(CN2CCN(C)CC2)nc2ccc(Cl)cc2c1-c1ccccc1`?
A: GI50: 1.8 µM; TGI: 4.43 µM

Q: Which GI50 does the source give for `COc1cccc(-c2nc3sccn3c2-c2ccnc(NCCCNS(=O)(=O)c3ccccc3)c2)c1` here?
A: 2.47 µM

Q: What about the TGI of the same compound?
A: 7.83 µM

Q: `Cc1cc(NN=C(c2ccc(O)cc2)c2ccc(O)cc2)c([N+](=O)[O-])cc1[N+](=O)[O-]` was tested. Which GI50 did it give?
A: 4.91 µM

Q: What about the TGI of the same compound?
A: 36.7 µM

Q: Which results are given for `CN1CC[C@H](c2c(O)cc(O)c3c(=O)cc(-c4ccccc4Cl)oc23)[C@H](O)C1`?
A: GI50: 0.0718 µM; TGI: 0.269 µM

Q: For `CCc1ccc2c(c1)N(CCO)C1=C(C(=O)OC1)C2c1cc(OC)c(OC)c(OC)c1` (configuration not stated), which GI50 is on record?
A: 0.0897 µM

Q: What about the TGI of the same compound?
A: 0.347 µM

Q: Which results are given for `COc1ccc(C(O)c2cc3c(N)c(C(=O)Nc4cccc(Br)c4C)sc3nc2C)cc1` (configuration not stated)?
A: GI50: 0.125 µM; TGI: 19.1 µM

Q: `O=C1Nc2ccc3c(c2/C1=C\c1cc2c(cc1Br)OCO2)OCO3` was tested. Which GI50 did it give?
A: 0.295 µM

Q: And the TGI?
A: 0.978 µM

Q: Which GI50 does the source give for `CCn1c(-c2nonc2N)nc2cnc(Oc3cccc(NC(=O)c4ccc(N(C)C)cc4)c3)cc21` here?
A: 10.7 µM

Q: And the TGI?
A: > 25 µM

Q: `CS(=O)(=O)Nc1cc(-c2ccc3ncnc(Nc4cccc(Cl)c4)c3c2)cnc1Cl` was tested. Which GI50 did it give?
A: 0.145 µM

Q: What about the TGI of the same compound?
A: 0.59 µM

Q: Which results are given for `CC(O)[C@H](NC(=O)N[C@@H](CC(N)=O)c1nc(N2CCNCC2)no1)C(=O)O` (some centres not stated)?
A: GI50: > 100 µM; TGI: > 100 µM

Q: With `COc1cc(/C=C2\SC(N3CCCCC3)=NC2=O)ccc1OCCCCCCOc1ccc(/C=C2\SC(N3CCCCC3)=NC2=O)cc1OC` as the compound, how does the GI50 read?
A: 10.3 µM

Q: And the TGI?
A: 37.2 µM

Q: `CCOC(=O)c1c(NC(=O)c2ccc(Cl)cc2)sc2c(CN(C)C)c(O)ccc12` was tested. Which GI50 did it give?
A: 3.48 µM

Q: And the TGI?
A: 18.6 µM

Q: With `COc1cc(-c2nn(-c3cccc(NC(=O)CCN4CCN(c5ccccc5)CC4)c3)cc2-c2ccncc2)ccc1Cl` as the compound, how does the GI50 read?
A: 3.03 µM

Q: What about the TGI of the same compound?
A: 51.4 µM

Q: With `COc1cc2cc(Oc3cccc(NC(=O)Nc4cc(C(F)(F)F)cc(C(F)(F)F)c4)c3)c(C)nc2cc1OC` as the compound, how does the GI50 read?
A: 1.08 µM

Q: What about the TGI of the same compound?
A: 3.96 µM

Q: With `O=[N+]([O-])/C=C/c1ccc(Cl)cc1[N+](=O)[O-]` as the compound, how does the GI50 read?
A: 1.92 µM

Q: What about the TGI of the same compound?
A: 3.69 µM

Q: For `CCOC(=O)[C@@H]1CSC(CC)=C(C(=O)O)N1`, which GI50 is on record?
A: > 100 µM

Q: What about the TGI of the same compound?
A: > 100 µM

Q: `COc1cc2c3cc1Oc1c(OC)c(OC)cc4c1C(Cc1ccc(O)c(c1)Oc1ccc(cc1)CC3N(C)CC2)N(C)CC4` (configuration not stated) was tested. Which GI50 did it give?
A: 8.21 µM

Q: And the TGI?
A: 23.1 µM

Q: What does the source list for `CN(C)c1ccc(-c2ccc(-c3ccc(C(=N)N)cn3)o2)cc1`?
A: GI50: 1.39 µM; TGI: 3.05 µM

Q: `C[C@@H]1CCc2ncc(F)cc2[C@H]2CCCN2c2ccn3ncc(c3n2)C(=O)N1` was tested. Which GI50 did it give?
A: 76.4 µM

Q: And the TGI?
A: > 100 µM

Q: Which GI50 does the source give for `COc1ccc2c(c1OC)O/C(=C\c1ncc([N+](=O)[O-])n1C)C2=O` here?
A: 2.51 µM

Q: What about the TGI of the same compound?
A: 8.23 µM

Q: Which GI50 does the source give for `COc1ccc(C2=Nn3c(nnc3-n3nc(C)cc3C)SC2)cc1` here?
A: 0.14 µM

Q: And the TGI?
A: > 100 µM
